Source: paper PMC8170132, “Kinetics of Abacavir-Induced Remodelling of the Major Histocompatibility Complex Class I Peptide Repertoire” (Frontiers in Immunology, 2021)

Experiments:
HLA-B*15:02 = HLA-B*15:02 (Homo sapiens, UniProt P01889, A329T/A93T/A95T/C349S/D201E/D98Y/E187L/E204Q/E69M/E70A/H137Y/K202T/L119I/Q94N/R155S/R180L/S121R/S35A/S48A/T118I/V306I/V36M/Y140S/Y91S); settings: ref [20]–[22]; cited from earlier work
HLA-B*57:01fos [1] = target: T1, HLA-B*57:01fos (Homo sapiens, UniProt P01889, D201E/D98Y/E176V/E187L/E204Q/E69M/E70A/G107R/I90N/K202T/L105A/L119I/N104I/N87E/Q89R/Q94S/R106L/R155S/R180L/R86G/S101N/S121V/S35A/S48A/T118I/V36M/Y140S/Y91M); assay: Fluorescence polarisation association rate measurements; format: binding; settings: 25°C; for Effect of combined abacavir and tapasin on binding of fluorescent peptide to HLA-B*57:01fos: 60 µM abacavir + tapasin-jun; for Effect of combined abacavir and tapasin on binding of fluorescent peptide to HLA-B*57:01fos / Effect of tapasin on binding of fluorescent peptide to HLA-B*57:01fos / Effect of abacavir on binding of fluorescent peptide to HLA-B*57:01fos: fluorescence polarisation; for Intrinsic binding of fluorescent peptide to UV exposed HLA-B*57:01fos: peptide alone, fluorescence polarisation (mP); for Effect of tapasin on binding of fluorescent peptide to HLA-B*57:01fos: tapasin-jun or tapasin-jun ERp57 C60A conjugate; for Effect of abacavir on binding of fluorescent peptide to HLA-B*57:01fos: 60 µM abacavir
T1 construct: Fos leucine zipper (C); made in house
Description: (§1) Peptide loaded HLA-B*57:01fos complexes were obtained as described ([50]) by refolding solubilised inclusion bodies of HLA-B*57:01fos heavy chains with human β 2m and UV-labile HLA-B57-conditional peptide ligand.
(§2) Fluorescence polarisation measurements were taken using a SpectraMax i3x Multi-Mode Microplate Reader (Molecular Devices) with rhodamine detection cartridge. All experiments were conducted at 25°C and used PBS supplemented with 0.5 mg/ml bovine-gamma-globulin (Sigma), and a 20 fold molar excess of human β 2m (Fitzgerald) in a volume of 60 µl. Binding of TAMRA-labelled peptides is reported in millipolarisation units (mP) and is obtained from the equation mP = 1,000 × (S – G × P)/(S + G × P), where S and P are background subtracted fluorescence count rates (S = polarisation emission filter is parallel to the excitation filter; P = polarisation emission filter is perpendicular to the excitation filter) and G (grating) is an instrument and assay dependent factor.
Peptide-receptive HLA-B*57:01fos were obtained by exposing HLA-B*57:01fos complexes loaded with UV labile conditional peptide ligand to ~360 nm light for 20 min at 4°C (“UV exposed” hereafter). The binding of fluorescent peptides to UV exposed HLA-B*57:01fos was monitored in the absence or presence of excess (60 µM) abacavir or tapasin-jun or tapasin-jun ERp57 C60A conjugate. […] Most experiments used 0.55 µM HLA-B*57:01fos molecules, but a minority of experiments involved different preparations of HLA-B*57:01fos which required higher concentrations of HLA-B*57:01fos, up to a maximum of 3.18 µM HLA-B*57:01fos, to achieve equivalent polarisation levels.

HLA-B*57:01fos [2] = target: T1, HLA-B*57:01fos; assay: Fluorescence polarisation dissociation rate measurements; format: binding; settings: for Effect of abacavir on dissociation of the peptide from HLA-B*57:01fos: 60 µM abacavir with competing peptide; for Half life (hours) of dissociation from HLA-B*57:01fos, Comp+Abacavir / Half life (hours) of dissociation from HLA-B*57:01fos, Comp+Tapasin / Half life (hours) of dissociation from HLA-B*57:01fos, Comp+Tapasin+Abacavir: as Comp; for Half life (hours) of dissociation from HLA-B*57:01fos, Comp+Abacavir: plus 60 µM abacavir; for Half life (hours) of dissociation from HLA-B*57:01fos, Comp+Abacavir / Half life (hours) of dissociation from HLA-B*57:01fos, Comp+Tapasin / Half life (hours) of dissociation from HLA-B*57:01fos, Comp+Tapasin+Abacavir / Half life (hours) of dissociation from HLA-B*57:01fos, Comp: fluorescence polarisation, 25°C, one-phase decay, plateau 50 mP (unconstrained for RVD), 3-4 replicates; for Half life (hours) of dissociation from HLA-B*57:01fos, Comp+Tapasin: plus conjugated tapasin-jun-ERp57 C60A (mostly 0.254 µM); for Half life (hours) of dissociation from HLA-B*57:01fos, Comp+Tapasin+Abacavir: plus tapasin-jun-ERp57 C60A and 60 µM abacavir; for Rate of dissociation from HLA-B*57:01fos (in words): competing peptide only; for Half life (hours) of dissociation from HLA-B*57:01fos, Comp: PBS + 0.5 mg/ml bovine-gamma-globulin, 20 fold excess human β2m, excess unlabelled competing peptide only; for Tapasin dependent enhancement of dissociation: tapasin-jun-ERp57 C60A with competing peptide
Description: as §1, §2
HLA-B*57:01fos molecules were UV exposed and then allowed to bind fluorescent peptides overnight at room temperature. Florescence polarisation measurements were taken after the addition of excess non-labelled competitor peptide (otherwise identical to the labelled peptide) in the absence or presence of 60 µM abacavir or conjugated tapasin-jun-ERp57 C60A proteins. […] Most experiments used 0.55 µM HLA-B*57:01fos molecules, but some experiments involved different preparations of HLA-B*57:01fos which required higher concentrations of HLA-B*57:01fos, up to a maximum of 1.38 µM HLA-B*57:01fos, to achieve equivalent polarisation levels.
Supplementary Table 2. Dissociation rates of TAMRA-labelled peptides from HLA-B*57:01fos molecules. The rates at which the indicated peptides dissociated from HLA-B*57:01fos molecules in the presence of excess unlabelled competing peptide (“Comp”), abacavir and tapasin (data shown in figure 7) was measured by Graphpad Prism v9.1.0. The dissociation rates were calculated by performing non-linear regression, using the one-phase decay method, with plateaus constrained to be equal to 50 mP (apart from being unconstrained for RVD peptide). The number of experimental replicates, and the standard deviation in the measured dissociation rates across the replicates is also presented.

HLA-B*58:01 = HLA-B*58:01 (Homo sapiens, UniProt P01889, A329T/C349S/D201E/D98Y/E176V/E187L/E204Q/E69T/G107R/I218V/I90N/K202T/L105A/L119I/N104I/N87E/Q89R/Q94S/R106L/R155S/R180L/R86G/S101N/S121R/S35A/S48A/T118I/V127L/V306I/V36M/Y140S/Y91M); settings: ref [20]–[22]; cited from earlier work

| Effect of combined abacavir and tapasin on binding of fluorescent peptide to HLA-B*57:01fos (HLA-B*57:01fos [1]) | Intrinsic binding of fluorescent peptide to UV exposed HLA-B*57:01fos (HLA-B*57:01fos [1]) | Effect of tapasin on binding of fluorescent peptide to HLA-B*57:01fos (HLA-B*57:01fos [1]) | Effect of abacavir on dissociation of the peptide from HLA-B*57:01fos (HLA-B*57:01fos [2]) | Half life (hours) of dissociation from HLA-B*57:01fos, Comp+Abacavir (HLA-B*57:01fos [2]) [h] | Half life (hours) of dissociation from HLA-B*57:01fos, Comp+Tapasin (HLA-B*57:01fos [2]) [h] | Half life (hours) of dissociation from HLA-B*57:01fos, Comp+Tapasin+Abacavir (HLA-B*57:01fos [2]) [h] | Rate of dissociation from HLA-B*57:01fos (in words) (HLA-B*57:01fos [2]) | Half life (hours) of dissociation from HLA-B*57:01fos, Comp (HLA-B*57:01fos [2]) [h] | Effect of abacavir on binding of fluorescent peptide to HLA-B*57:01fos (HLA-B*57:01fos [1]) | Tapasin dependent enhancement of dissociation (HLA-B*57:01fos [2]) | Molecule | Odds ratio of hypersensitivity reaction with HLA-B*15:02 (HLA-B*15:02) | Odds ratio of hypersensitivity reaction with HLA-B*58:01 (HLA-B*58:01) |
| --- | --- | --- | --- | --- | --- | --- | --- | --- | --- | --- | --- | --- | --- |
|  |  |  |  |  |  |  |  |  |  |  | NC(=O)N1c2ccccc2C=Cc2ccccc21 [carbamazepine] | > 500 |  |
|  |  | did not affect the binding | pronounced decrease in the dissociation | 233.60 | 1.60 | 142.70 |  | 2.67 |  | minimal | NTVELRVK*I |  |  |
|  |  | only slightly enhanced binding | pronounced decrease in the dissociation | 51.83 | 1.06 | 2.47 |  | 3.27 |  | significant | KVFK*LQTSL |  |  |
|  |  | only slightly enhanced binding | pronounced decrease in the dissociation | 71.63 | 2.04 | 33.59 |  | 2.34 | less pronounced |  | ATFK*GIVRAI |  |  |
|  |  |  |  |  |  |  |  |  |  |  | Oc1ncnc2[nH]ncc12 [allopurinol] |  | > 500 |

| Molecule | Effect of combined abacavir and tapasin on binding of fluorescent peptide to HLA-B*57:01fos (HLA-B*57:01fos [1]) | Intrinsic binding of fluorescent peptide to UV exposed HLA-B*57:01fos (HLA-B*57:01fos [1]) | Effect of tapasin on binding of fluorescent peptide to HLA-B*57:01fos (HLA-B*57:01fos [1]) | Effect of abacavir on dissociation of the peptide from HLA-B*57:01fos (HLA-B*57:01fos [2]) | Half life (hours) of dissociation from HLA-B*57:01fos, Comp+Abacavir (HLA-B*57:01fos [2]) [h] | Half life (hours) of dissociation from HLA-B*57:01fos, Comp+Tapasin (HLA-B*57:01fos [2]) [h] | Half life (hours) of dissociation from HLA-B*57:01fos, Comp+Tapasin+Abacavir (HLA-B*57:01fos [2]) [h] | Rate of dissociation from HLA-B*57:01fos (in words) (HLA-B*57:01fos [2]) | Half life (hours) of dissociation from HLA-B*57:01fos, Comp (HLA-B*57:01fos [2]) [h] | Effect of abacavir on binding of fluorescent peptide to HLA-B*57:01fos (HLA-B*57:01fos [1]) | Tapasin dependent enhancement of dissociation (HLA-B*57:01fos [2]) | Odds ratio of hypersensitivity reaction with HLA-B*15:02 (HLA-B*15:02) | Odds ratio of hypersensitivity reaction with HLA-B*58:01 (HLA-B*58:01) |
| --- | --- | --- | --- | --- | --- | --- | --- | --- | --- | --- | --- | --- | --- |
| VTKK*TYEIW [TAMRA labelled canonical HLA-B*57:01 peptide] | did not enhance the binding | bound to HLA-B*57:01 molecules | catalysed binding of the VTK and ITT peptides to a greater extent than abacavir | minimal impact on the dissociation | 373.30 | 207.90 | 198.40 | hundreds of hours | 374.80 |  |  |  |  |
| RVDPAK*GLFYF | tapasin partially mitigated this effect | poor binding |  | modestly enhanced | 0.26 | 0.35 | 0.26 | minutes | 0.31 | enhanced by abacavir during the first hour |  |  |  |
| TSLK*SRVTI | occurred faster than in the presence of tapasin or abacavir alone | limited intrinsic ability to bind | binding strongly enhanced | pronounced decrease in the dissociation | 22.41 | 5.12 | 10.38 |  | 7.41 | binding strongly enhanced |  |  |  |
